biological target: TNFα trimer (Homo sapiens, UniProt P01375); test: TNFα FP Competitive Binding Assay; conditions: TNFα FP competitive binding assay; class symbols A/B/C; read-out: TNF IC50
Procedure, shortened: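 Fluorescence polarization displacement: 20 nM TNFα trimer (60 nM protein) with 1 nM fluorescein-labelled bis-isoquinoline probe in HEPES/NaCl/EDTA/Triton X-100 buffer. 12-point 1:3 compound series, top final 338 μM (3.4% DMSO) or 100 μM (2.0% DMSO); 18-24 h at 37 °C, then 1 h rt before background-subtracted mP read; variable-slope curve fit.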

Chain of TNFα trimer (P01375 77-233 limits assumed): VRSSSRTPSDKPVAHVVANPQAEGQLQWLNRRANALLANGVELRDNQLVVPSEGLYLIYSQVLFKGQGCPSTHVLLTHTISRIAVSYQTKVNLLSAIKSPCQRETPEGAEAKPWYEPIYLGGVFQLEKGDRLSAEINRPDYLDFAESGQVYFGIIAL

SMILES	IC50 [µM]
COc1ccccc1C1CCCCc2nc3ccc(-c4cnc(N5CCOCC5)nc4)cn3c21 (centres unmarked) [S.1]	< 1
CCOC(=O)CNc1ncc(-c2ccc3nc4c(n3c2)C(c2ccccc2OC)CCCC4)cn1 (centres unmarked) [S.2]	1 to 10
COc1ccccc1C1CCCCc2nc3ccc(-c4cnc(NCC(=O)O)nc4)cn3c21 (centres unmarked) [S.3]	1 to 10
COc1ccccc1C1CCCCc2nc3ccc(-c4cnc(C(C)(C)O)nc4)cn3c21 (centres unmarked) [S.4]	< 1
COc1ncc(-c2ccc3nc4n(c3c2)C(c2ccccc2)COC4)cc1F (centres unmarked) [T.1]	1 to 10
CS(=O)(=O)c1ccc(-c2ccc3nc4n(c3c2)C(c2ccccc2)COC4)cn1 (centres unmarked) [T.2]	1 to 10
c1ccc(C2COCc3nc4ccc(-c5cnc6nonc6c5)cc4n32)cc1 (centres unmarked) [T.3]	1 to 10
FC(F)(F)COc1ccc(-c2ccc3nc4n(c3c2)C(c2ccccc2)COC4)cn1 (centres unmarked) [T.4]	1 to 10
CC(C)Oc1ccc(-c2ccc3nc4n(c3c2)C(c2ccccc2)COC4)cn1 (centres unmarked) [T.5]	1 to 10
CC(=O)Nc1ccc(-c2ccc3nc4n(c3c2)C(c2ccccc2)COC4)cn1 (centres unmarked) [T.6]	10 to 100
COc1ncc(-c2ccc3nc4n(c3c2)C(c2ccccc2)COC4)cc1C (centres unmarked) [T.7]	1 to 10
Cc1nccn1-c1cnc(-c2ccc3nc4n(c3c2)C(c2ccccc2)COC4)cn1 (centres unmarked) [T.8]	1 to 10
c1ccc(C2COCc3nc4ccc(-c5cnc(-n6ccnc6)cn5)cc4n32)cc1 (centres unmarked) [T.9]	1 to 10
c1ccc(C2COCc3nc4ccc(-c5ccc(N6CCNCC6)nc5)cc4n32)cc1 (centres unmarked) [T.10]	1 to 10
CN1CCOc2cc(-c3ccc4nc5n(c4c3)C(c3ccccc3)COC5)cnc21 (centres unmarked) [T.11]	1 to 10
Cc1cc(-c2ccc3nc4n(c3c2)C(c2ccccc2)COC4)cnc1N1CCOCC1 (centres unmarked) [T.12]	1 to 10
CC(=O)N1CCN(c2ccc(-c3ccc4nc5n(c4c3)C(c3ccccc3)COC5)cn2)CC1 (centres unmarked) [T.13]	1 to 10
CN(C)c1ncc(-c2ccc3nc4n(c3c2)C(c2ccccc2)COC4)cn1 (centres unmarked) [T.14]	1 to 10
N#Cc1ncc(-c2ccc3nc4n(c3c2)C(c2ccccc2)COC4)cn1 (centres unmarked) [T.15]	1 to 10
N#Cc1ccc(-c2ccc3nc4n(c3c2)C(c2ccccc2)COC4)cn1 (centres unmarked) [T.16]	1 to 10

same assay, conditions: fluorescence polarization competition; 20 nM TNFα trimer, 1 nM OregonGreen488 probe; read-out: TNF IC50 (TNFα FP binding assay IC50)

SMILES	IC50 [µM]
OC1CCN(c2ncc(-c3ccc4nc5n(c4n3)C(c3cccc(F)c3)CC5)cn2)CC1 (centres unmarked) [M.4, 1-(5-(8-(3-fluorophenyl)-7,8-dihydro-6H-pyrrolo[2′,1′:2,3]imidazo[4,5-b]pyridin-2-yl)pyrimidin-2-yl)piperidin-4-ol]	< 1
O=C1NCC2CN(c3ncc(-c4ccc5nc6n(c5n4)C(c4cccc(F)c4)CC6)cn3)CCN12 (centres unmarked) [M.5]	< 1
Cc1ccc(C)c(C2CCc3nc4ccc(-c5cnc(N6CCOCC6)nc5)nc4n32)c1 (centres unmarked) [N.1]	< 1
Cc1ccc(C)c(C2CCc3nc4ccc(-c5cnc(N6CCNC(=O)C6)nc5)nc4n32)c1 (centres unmarked) [N.2]	< 1
Cc1ccc(C)c(C2CCc3nc4ccc(-c5cnc(N6CCC(O)CC6)nc5)nc4n32)c1 (centres unmarked) [N.3]	< 1
Cc1ccc(C)c(C2CCc3nc4ccc(-c5cnc(N6CCN7C(=O)NCC7C6)nc5)nc4n32)c1 (centres unmarked) [N.4]	< 1
c1ccc(C2CCCc3nc4ccc(-c5cnc(N6CCOCC6)nc5)nc4n32)cc1 (centres unmarked) [O.1]	< 1
CC(C)(O)c1ncc(-c2ccc3nc4n(c3n2)C(c2ccccc2)CCC4)cn1 (centres unmarked) [O.2]	< 1
O=C1CN(c2ncc(-c3ccc4nc5n(c4n3)C(c3ccccc3)CCC5)cn2)CCN1 (centres unmarked) [O.3]	< 1
OC1CCN(c2ncc(-c3ccc4nc5n(c4n3)C(c3ccccc3)CCC5)cn2)CC1 (centres unmarked) [O.4]	< 1
c1ccc(C2CCc3nc4cnc(-c5cnc(N6CCOCC6)nc5)cc4n32)cc1 (centres unmarked) [P.1]	1 to 10
CC(C)(O)c1ncc(-c2cc3c(cn2)nc2n3C(c3ccccc3)CC2)cn1 (centres unmarked) [P.2]	1 to 10
O=C1CN(c2ncc(-c3cc4c(cn3)nc3n4C(c4ccccc4)CC3)cn2)CCN1 (centres unmarked) [P.3]	10 to 100
O=C1CN(c2ncc(-c3cnc4nc5n(c4c3)C(c3ccccc3)CCC5)cn2)CCN1 (centres unmarked) [Q.1]	10 to 100
COc1ccccc1C1CCCc2nc3ccc(-c4ccc(OCC(=O)O)nc4)cn3c21 (centres unmarked) [R.1]	< 1
